Laboratory results: patent publication US12415776B2, “Lipid nanoparticle compositions for delivering circular polynucleotides” (Orna Therapeutics, Inc., priority 2021, dated 2025)

Key:
splenic T cells = assay: mOX40L expression in splenic T cells after IV LNP-circular RNA; format: in vivo, C57BL/6 mice; conditions: 1 mg/kg intravenously, 24 hours
Description: The ionizable lipid:helper lipid:cholesterol:PEG-lipid molar ratio of these LNPs was 50:10:38.5:1.5. C57BL/6 female mice (6-8 weeks, n=4) were dosed at 1 mg/kg intravenously. At 24 hours, the spleen from the mice were collected for flow cytometry analysis, tested for weight loss and measured for serum alanine aminotransferase (ALT) after blood collection. mOX40L expression was measured in splenic T cells.

[1] = test system: splenic immune cells (T cells, myeloid cells, B cells, NK cells); assay: mOX40L expression in splenic immune cells after IV LNP-circular RNA (flow cytometry); format: in vivo, C57BL/6 mice; conditions: 1 mg/kg intravenously, 24 hours, IL:P 5.7, 50:10:38.5:1.5
Description: The ionizable lipid:helper lipid:cholesterol:PEG-lipid molar ratio of these LNPs was 50:10:38.5:1.5. Dialysis of the LNPs were performed using PBS. C57BL/6 female mice (6-8 weeks, n=4) were dosed at either LNP comprising Lipid 1 of Table […] or the Lipid 15 of Table 10f at 1 mg/kg intravenously.

CCCCCCCCCCCCC(O)CN(CCCO)CCCCCCCC(=O)OC(CCCCCCCC)CCCCCCCC (centres unmarked) [Lipid 1 of Table 10e]
mOX40L expression in splenic T cells (splenic T cells): resulted in expression of mOX40L in splenic T cells
mOX40L transfection in splenic immune cells [1]: comparable or higher levels of mOX40L transfection
